# From PubChem BioAssay (NCI)
# Values joined by “and” are separate entries in the source; they are usually repeats but may differ in a detail not shown here. Identical values can stand only once.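 Each compound was tested at five concentrations against cells in 96-well plates for 48 hours. GI50 marks 50% less growth. TGI: concentration producing complete growth inhibition.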 *1 amine or outer side, *2 acyl side, *3 side chain or, on linkers, in order; H or OH if unused. Where a SMILES comes first, the peptide text is derived from it. CO = O=C([*:1])[*:2]
# What was measured:
# Test in all cases: growth of human tumour cells (NCI), 48 h
# PC-3 prostate = system: PC-3 prostate
# SW-620 colon = system: SW-620 colon
# HCT-15 colon = system: HCT-15 colon
# UO-31 renal = system: UO-31 renal
# TK-10 renal = system: TK-10 renal
# LOX IMVI melanoma = system: LOX IMVI melanoma
# NCI-H226 lung = system: NCI-H226 lung
# HOP-92 NSCLC = system: HOP-92 NSCLC
SMILES,GI50 (PC-3 prostate),TGI (PC-3 prostate),GI50 (SW-620 colon),TGI (SW-620 colon),GI50 (HCT-15 colon),TGI (HCT-15 colon),GI50 (UO-31 renal),TGI (UO-31 renal),GI50 (TK-10 renal),TGI (TK-10 renal),GI50 (LOX IMVI melanoma),TGI (LOX IMVI melanoma),GI50 (NCI-H226 lung),TGI (NCI-H226 lung),GI50 (HOP-92 NSCLC),TGI (HOP-92 NSCLC)
Nc1c(C(=O)Nc2cccc3ccccc23)sc2nc3c(cc12)CCCCC3,1.07 µM,> 50 µM,0.538 µM,> 50 µM,0.309 µM,> 50 µM,1.91 µM,> 50 µM,43.4 µM,> 50 µM,0.909 µM,> 50 µM,7.58 µM,> 50 µM,0.375 µM,> 50 µM
O=C1NC(=O)[C@H]2C3C=CC([C@@H]12)[C@@H]1C(=O)NC(=O)[C@H]31,,> 100 µM,,> 100 µM,,> 100 µM,,> 100 µM,,> 100 µM,,> 100 µM,,> 100 µM,,> 100 µM
N#C/C(=C\c1ccc(Br)cc1)n1nnc2cc(F)c(F)cc21,1.8 µM,3.81 µM,1.55 µM,3.32 µM,1.34 µM,2.93 µM,1.46 µM,2.78 µM,2.16 µM,5.56 µM,1.55 µM,2.98 µM,2.17 µM,4.99 µM,1.57 µM,4.15 µM
Cc1ccc(-c2nc3nc(-c4ccc(Cl)cc4)nc(N4CCCNCC4)c3o2)cc1,1.6 µM,3.14 µM,1.7 µM,3.32 µM,1.57 µM,3.08 µM,1.3 µM,2.62 µM,1.78 µM,3.33 µM,1.63 µM,3.15 µM,1.78 µM,3.87 µM,1.36 µM,2.91 µM
C=C1C(=O)O[C@H]2[C@H]1CC/C(COC(=O)N[C@@H](Cc1c[nH]c3ccccc13)C(=O)OC)=C\CC[C@@]1(C)O[C@@H]21,1.45 µM,3.41 µM,1.47 µM,3.67 µM,1.45 µM,3.91 µM,1.45 µM,2.76 µM,1.72 µM,3.19 µM,1.16 µM,2.58 µM,15.4 µM,33.5 µM,1.42 µM,2.98 µM
CC(=O)O[C@H]1C(=O)[C@@]2(C)[C@H]([C@H](OC(=O)c3ccccc3)[C@]3(O)C[C@H](OC(=O)[C@H](OC(=O)CCC(=O)OC4CCC(S/N=C(N)/N=C(\N)N(C)C)CC4)[C@@H](NC(=O)c4ccccc4)c4ccccc4)C(C)=C1C3(C)C)[C@]1(OC(C)=O)CO[C@@H]1C[C@@H]2O (some centres not stated),0.0155 µM,> 50 µM,0.0119 µM,> 50 µM,0.269 µM,> 50 µM,0.619 µM,> 50 µM,0.0205 µM,1.65 µM,0.00748 µM,> 50 µM,23.4 µM,> 50 µM,,
CCOC(=O)c1ccc(C(O)CC(=O)OC(C)(C)C)[nH]1 (configuration not stated),21.3 µM,62 µM,50.1 µM,> 100 µM,34.4 µM,> 100 µM,38.5 µM,> 100 µM,58.4 µM,> 100 µM,25.1 µM,86.8 µM,94.1 µM,> 100 µM,17.9 µM,55.8 µM
COc1ccc2c(c1)/C(=C/c1c(-c3ccc(C)cc3)nc3sc(C)cn13)C(=O)N2,4.61 µM,> 100 µM,16.8 µM,> 100 µM,,,10.5 µM,> 100 µM,7.93 µM,> 100 µM,,,20.1 µM,95.9 µM,10.3 µM,60.5 µM
COc1ccc2c(c1)C(=O)c1c-2c(N2CCN(C(=O)CN(C)C)CC2)nc2ccccc12,14.4 µM,31.5 µM,10.3 µM,26.3 µM,14.4 µM,32.3 µM,10.4 µM,26 µM,14.1 µM,37.6 µM,12.3 µM,33.6 µM,35.7 µM,> 100 µM,5.69 µM,24.2 µM
O=C1CN2CCC1C/C2=C\c1ccnc2c(Cl)cccc12 (configuration not stated),89 µM,> 100 µM,> 100 µM,> 100 µM,85.7 µM,> 100 µM,17.7 µM,> 100 µM,> 100 µM,> 100 µM,52.2 µM,> 100 µM,90.5 µM,> 100 µM,37 µM,> 100 µM
CCOC(=O)CCc1c(C)c2ccc(O)cc2oc1=O,,> 100 µM,,> 100 µM,,> 100 µM,,,,> 100 µM,,> 100 µM,,> 100 µM,,> 100 µM
Cc1cc(Nc2nc(N3CCOCC3)nc3ccccc23)n[nH]1,,,4.81 µM,56.8 µM,3.54 µM,> 100 µM,1.38 µM,11.2 µM,1.52 µM,37.3 µM,4.35 µM,21.2 µM,4.13 µM,45.2 µM,4.22 µM,62.8 µM
COc1cc(C(=O)O)ccc1NC(=O)[C@@H]1N[C@@H](CC(C)(C)C)[C@](C#N)(c2ccc(Cl)cc2F)[C@H]1c1cccc(Cl)c1F,2.91 µM,> 42.6 µM,3.02 µM,> 26.3 µM,2.93 µM,10.1 µM,0.0414 µM,5.03 µM,5.28 µM,21.2 µM,0.148 µM,6.84 µM,0.0941 µM,1.71 µM,2.48 µM,5.15 µM
CNC(=O)c1ccc(Nc2nc(OC3CCCC3)c3c(-c4ccc5nc(C)oc5c4)c[nH]c3n2)c(OC)c1,3.57 µM,> 100 µM,0.121 µM,> 100 µM,0.0689 µM,> 100 µM,2.97 µM,> 100 µM,> 68.7 µM,> 100 µM,0.381 µM,> 100 µM,9.04 µM,> 100 µM,2.54 µM,> 100 µM
CCN(CC)CCCC(C)N/C(c1cccc(OC)c1)=c1\c(=O)[nH]n(-c2c3ccccc3nc3ccccc23)c(=O)\c1=C(/NC(C)CCCN(CC)CC)c1cccc(OC)c1 (configuration not stated),1.2 µM,4.97 µM,0.528 µM,6.82 µM,1.02 µM,6.91 µM,1.31 µM,3.61 µM,2.58 µM,7.89 µM,,,1.16 µM,3.63 µM,,
O=C1OC2(c3ccccc31)c1cc(I)c(O)c(I)c1Oc1c2cc(I)c(O)c1I,,> 100 µM,,> 100 µM,,> 100 µM,,> 100 µM,,> 100 µM,,> 100 µM,,> 100 µM,,> 100 µM
C=C1C(=O)O[C@H]2[C@H]1CC/C(Cn1cc(Cn3ccc4cc(Cl)ccc43)nn1)=C\CC[C@@]1(C)O[C@@H]21,1.3 µM,2.87 µM,1.13 µM,2.78 µM,1.14 µM,2.66 µM,1.09 µM,2.29 µM,1.67 µM,3.11 µM,1.31 µM,2.88 µM,1.59 µM,3.03 µM,0.489 µM,1.74 µM
Cc1c(N(C(=O)c2cc(-c3cc(Cl)ccc3C(=O)N3Cc4ccccc4C[C@H]3CN3CCOCC3)n(C)c2C)c2ccc(O)cc2)cc(C#N)n1C,11.3 µM,> 100 µM,34.4 µM,> 100 µM,16.6 µM,> 100 µM,15.6 µM,> 100 µM,12.8 µM,78 µM,14.6 µM,> 100 µM,14.1 µM,44.4 µM,5.24 µM,22.6 µM
OCC1OC(O)C(N=Cc2ccc3c(c2)OCO3)C(O)C1O (configuration not stated),,> 100 µM,,> 100 µM,,> 100 µM,,> 100 µM,,> 100 µM,,> 100 µM,,> 100 µM,,> 100 µM
O=C(Nc1nc(-c2ccc(Cl)cc2)cs1)c1ccc(O)c(O)c1,,,4.74 µM,20.1 µM,3.14 µM,18.3 µM,2.29 µM,10.6 µM,2.87 µM,9.98 µM,4.26 µM,15.7 µM,4.65 µM,19.7 µM,2.67 µM,9.18 µM
COc1cc(-c2ccc(-[n+]3nc(-c4ccc([N+](=O)[O-])cc4)nn3-c3ccc([N+](=O)[O-])cc3)c(OC)c2)ccc1-[n+]1nc(-c2ccc([N+](=O)[O-])cc2)nn1-c1ccc([N+](=O)[O-])cc1,12.8 µM,36.5 µM,2.99 µM,25.1 µM,6.17 µM,49.5 µM,6.28 µM,27.8 µM,4.61 µM,17.5 µM,0.347 µM,10.1 µM,12.1 µM,45.7 µM,,
O=S(=O)(NCCNc1cc(-c2cn(-c3ccccc3)nc2-c2cccc(O)c2)ccn1)c1ccc(F)cc1,2.29 µM,10.3 µM,3.52 µM,13.6 µM,1.8 µM,5.75 µM,2.31 µM,7.88 µM,3.58 µM,9.84 µM,,,3.06 µM,13.7 µM,2.03 µM,8.48 µM
Fc1ccc(Nc2ccc3cc(OCCCN4CCOCC4)ccc3n2)cc1F,4.29 µM,50 µM,2.12 µM,4.4 µM,2.55 µM,10.4 µM,2.24 µM,6.84 µM,,,1.6 µM,3.09 µM,,,2.63 µM,7.9 µM
CCCCCCCCO/N=C\c1c2c(O)c3c(O)c(C)c4c(c3c1O)C(=O)C(C)(O/C=C\C(OC)C(C)C(OC(C)=O)C(C)C(O)C(C)C(O)C(C)/C=C\C=C(\C)C(=O)N2)O4 (configuration not stated),1.82 µM,7.02 µM,1.77 µM,6.09 µM,1.79 µM,6.81 µM,,,,,1.53 µM,5.6 µM,2.05 µM,9.71 µM,1.38 µM,5.32 µM
CC(C)C(NC(=O)C(CCCN=C(N)N)NC(=O)NC(Cc1ccccc1)C(=O)O)C(=O)NC(C=O)CCCN=C(N)N (stereo not drawn) ({Phe-CO}-Arg-Val-Arg-aldehyde; configuration not given here),> 5 µM,> 5 µM,> 5 µM,> 5 µM,> 5 µM,> 5 µM,> 5 µM,> 5 µM,> 5 µM,> 5 µM,> 5 µM,> 5 µM,> 5 µM,> 5 µM,,
O=C(/C=C/c1ccc2c(c1)OCO2)c1ccccc1,22.5 µM,58.4 µM,3.72 µM,14.5 µM,16.6 µM,> 100 µM,4.19 µM,18.9 µM,,,12.6 µM,25.9 µM,23.4 µM,78.5 µM,15.4 µM,41.3 µM
Cc1cc2c(cc1C)[n+](=O)c(C(=O)c1cccs1)c(C(F)(F)F)n2[O-],0.827 µM and 7.09 µM,,2.48 µM and 11.5 µM,50 µM and 50.6 µM,5.27 µM and 3.56 µM,26 µM and 56 µM,1.49 µM and 1.07 µM,5.83 µM and 2.34 µM,,,,12.3 µM and 13.2 µM,4.06 µM,50 µM,1.53 µM and 5.5 µM,10.6 µM and 37.9 µM
N#C/C(=C\c1ccc(Cl)cc1)n1nnc2cc(F)c(F)cc21,1.61 µM,3.53 µM,1.72 µM,3.46 µM,1.42 µM,3.55 µM,1.55 µM,2.88 µM,,,1.57 µM,2.99 µM,2.02 µM,4.54 µM,1.07 µM,2.56 µM
CCN(CC)CCCN1C(=O)c2c(c(C)c3c(oc4cc(O)ccc43)c2C)C1=O,,,1.73 µM,3.25 µM,1.77 µM,3.39 µM,1.66 µM,3.09 µM,1.77 µM,3.28 µM,1.79 µM,3.3 µM,4.47 µM,27.4 µM,1.48 µM,3.02 µM
COc1cc2c(cc1OCCCCCN1CCN(c3cc(=O)oc4c(C)c(OC)ccc34)CC1)N=C[C@@H]1CCCN1C2=O,< 0.01 µM,0.408 µM,< 0.0108 µM,4.26 µM,0.552 µM,4.42 µM,0.014 µM,0.0383 µM,< 0.0129 µM,13.3 µM,,,< 0.01 µM,0.0368 µM,< 0.01 µM,< 0.0141 µM
